Where two headings read alike, the source gives them in different places.
Legend:
[1] = molecular target: T1, receptor 5.24 (Carassius auratus, UniProt Q9PW88); experiment: 3H-L-arginine saturation binding to membranes of receptor 5.24-expressing HEK 293 cells; set-up: species or system goldfish
T1 construct: The receptor 5.24 full length cDNA detects 1-2 bands in genomic DNA blots; expressed in transfected cells; host or cells: HEK 293 cells expressing SV40 large T antigen (293-TSA)
T1 sequence (Q9PW88 25-877): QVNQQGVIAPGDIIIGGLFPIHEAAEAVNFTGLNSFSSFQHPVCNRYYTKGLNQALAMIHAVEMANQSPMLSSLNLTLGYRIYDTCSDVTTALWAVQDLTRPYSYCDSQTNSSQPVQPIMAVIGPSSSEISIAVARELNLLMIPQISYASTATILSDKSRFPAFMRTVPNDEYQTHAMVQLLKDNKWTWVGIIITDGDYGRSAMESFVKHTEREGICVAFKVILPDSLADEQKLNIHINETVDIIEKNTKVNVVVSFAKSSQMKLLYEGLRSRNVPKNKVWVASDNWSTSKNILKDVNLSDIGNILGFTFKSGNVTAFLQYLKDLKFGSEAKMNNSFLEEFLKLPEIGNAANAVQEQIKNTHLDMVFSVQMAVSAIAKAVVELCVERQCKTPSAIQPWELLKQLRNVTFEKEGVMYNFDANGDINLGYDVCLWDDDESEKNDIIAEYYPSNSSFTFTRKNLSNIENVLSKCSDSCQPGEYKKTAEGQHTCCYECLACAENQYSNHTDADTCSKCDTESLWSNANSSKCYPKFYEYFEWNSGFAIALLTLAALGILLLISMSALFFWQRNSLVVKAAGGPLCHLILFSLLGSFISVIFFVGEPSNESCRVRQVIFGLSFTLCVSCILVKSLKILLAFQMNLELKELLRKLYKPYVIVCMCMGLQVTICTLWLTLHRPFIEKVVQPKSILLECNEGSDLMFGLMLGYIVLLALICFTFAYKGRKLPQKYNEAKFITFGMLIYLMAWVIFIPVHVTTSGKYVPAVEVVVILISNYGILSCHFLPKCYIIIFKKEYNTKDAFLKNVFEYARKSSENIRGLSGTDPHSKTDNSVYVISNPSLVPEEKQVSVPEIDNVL
Excerpt: High-Affinity Binding of Radiolabeled L-Arginine to the Cloned Goldfish Odorant Receptor. To determine the affinity of the cloned goldfish amino acid receptor for basic amino acids, we characterized the ligand-receptor interaction by radiolabeled ligand binding to receptors expressed in mammalian cells. Human embryonic kidney (HEK) 293 cells were transfected with expression plasmids containing the receptor 5.24 cDNA insert. […] We next wished to determine what second messenger pathway receptor 5.24 couples to in HEK 293 cells. Control cells or cells expressing receptor 5.24 were exposed to varying concentrations of arginine and assayed for the accumulation of IP3 and cAMP.
Mammalian Cell Culture and DNA Transfections. For cell transfections, the receptor 5.24 cDNA insert was subcloned into two expression vectors: CMVI, which utilizes a human cytomegalovirus (CMV) immediate early promoter-enhancer plus the CMV intron A sequence to drive expression, and 608RX-2.2L, which is similar to CMVI except the cDNA insert is followed by an internal ribosome entry site (IRES)—enhanced green fluorescent protein (EGFP) coding sequence; 608RX-2.2L also contains a puromycin resistance gene. For transient assays, HEK 293 cells expressing the SV40 large T antigen (293 TSA cells) were transfected with the CMVI-receptor 5.24 or CMVI control plasmid using lipofectamine (Life Technologies) and harvested at 48 hours for membrane preparations. For stable cell lines, 293-TSA cells were transfected with the 608RX-2.2L-receptor 5.24 plasmid or a control 608RX-2.2L plasmid and selected in puromycin. Colonies showing high levels of EGFP fluorescence (as judged by epifluorescence microscopy) were picked, expanded, and screened for 3H-L-arginine binding (see below). In five independent receptor 5.24-transfected stable cell lines, receptor densities (Rt) varied between 0.5 and 6.0 pmol L-arginine binding sites/mg membrane protein. […] All competition binding assays and signal transduction studies were performed using the stable cell line 5.24-20 (Rt=2.0 pmol /mg) and a control cell line (2.2-9) stably transfected with vector alone (Rt=0.03 pmol/mg).
Membrane Preparations and Ligand Binding Assays. Membranes for ligand binding assays were prepared by washing confluent cells three times with phosphate buffered saline (PBS), detaching cells with a PBS-based enzyme-free dissociation solution, and resuspending cells in ice-cold 5.0 mM Hepes, pH 7.4, 1.0 mM EDTA, 1.0 μg/ml leupeptin, 0.5 mM PMSF. All subsequent manipulations were performed on ice. After a 30 min incubation, the cell suspension was homogenized and centrifuged at 100,000×g for 30 min. Cell membrane pellets were washed twice by resuspension and centrifugation in binding buffer (20 mM Hepes, pH 7.4, 1.0 mM EDTA, 2.0 mM MgCl2, 1.0 μg/ml leupeptin, 0.5 mM PMSF), resuspended in binding buffer, and frozen at −80° C.
Saturation binding assays were performed using 20-25 μg of membrane protein in a final volume of 100 μl binding buffer and increasing concentrations of [2,3-3H] L-arginine (specific activity=40 Ci/mmol; Dupont NEN). Non-specific binding was measured in the presence of 500 μM unlabeled L-arginine. Competition assays were performed with 500 nM [2,3-3H] […] Filters were washed three times with 4.0 ml ice cold 20 mM Hepes, pH 7.4, and retained radioactivity was measured by scintillation counting. […] Data were analyzed by nonlinear curve fitting using Origin software (Microcal). […]

[2] = tested on: catfish olfactory neurons; settings: 100 μM, catfish olfactory epithelium; cited from earlier work
[3] = tested on: goldfish olfactory system; settings: cited from earlier work

Compound N=C(N)NCCC[C@H](N)C(=O)O [L-Arginine] has a Kd ([1]; mean±SEM, n=4, read-out: dissociation constant (Kd)) of 121 ± 33 nM, a Hill coefficient ([1]; mean±SEM, n=4 determinations) of 0.95±0.07 and a Kd ([1]; range of n=4 determinations, read-out: dissociation constant (Kd), range) of 52 to 207 nM. The Kd ([1]; summary statement, read-out: Kd (high affinity interaction)) was ~100 nM, the “fraction of olfactory neurons responding” value [2] was ~40% and the “in vivo threshold sensitivity” value [3] was “ca. 1 nM”.

Reference: US6410249B1, “Odorant receptors” (priority 1999, dated 2002)
